The structures appear in SMILES notation. Values joined by “and” are separate entries in the source; they are usually repeats but may differ in a detail not shown here. Identical values can stand only once.

For the experiment, the target named is T1, Tyrosine-protein kinase Mer (Homo sapiens) (UniProt Q12866).
T1 sequence (whole entry): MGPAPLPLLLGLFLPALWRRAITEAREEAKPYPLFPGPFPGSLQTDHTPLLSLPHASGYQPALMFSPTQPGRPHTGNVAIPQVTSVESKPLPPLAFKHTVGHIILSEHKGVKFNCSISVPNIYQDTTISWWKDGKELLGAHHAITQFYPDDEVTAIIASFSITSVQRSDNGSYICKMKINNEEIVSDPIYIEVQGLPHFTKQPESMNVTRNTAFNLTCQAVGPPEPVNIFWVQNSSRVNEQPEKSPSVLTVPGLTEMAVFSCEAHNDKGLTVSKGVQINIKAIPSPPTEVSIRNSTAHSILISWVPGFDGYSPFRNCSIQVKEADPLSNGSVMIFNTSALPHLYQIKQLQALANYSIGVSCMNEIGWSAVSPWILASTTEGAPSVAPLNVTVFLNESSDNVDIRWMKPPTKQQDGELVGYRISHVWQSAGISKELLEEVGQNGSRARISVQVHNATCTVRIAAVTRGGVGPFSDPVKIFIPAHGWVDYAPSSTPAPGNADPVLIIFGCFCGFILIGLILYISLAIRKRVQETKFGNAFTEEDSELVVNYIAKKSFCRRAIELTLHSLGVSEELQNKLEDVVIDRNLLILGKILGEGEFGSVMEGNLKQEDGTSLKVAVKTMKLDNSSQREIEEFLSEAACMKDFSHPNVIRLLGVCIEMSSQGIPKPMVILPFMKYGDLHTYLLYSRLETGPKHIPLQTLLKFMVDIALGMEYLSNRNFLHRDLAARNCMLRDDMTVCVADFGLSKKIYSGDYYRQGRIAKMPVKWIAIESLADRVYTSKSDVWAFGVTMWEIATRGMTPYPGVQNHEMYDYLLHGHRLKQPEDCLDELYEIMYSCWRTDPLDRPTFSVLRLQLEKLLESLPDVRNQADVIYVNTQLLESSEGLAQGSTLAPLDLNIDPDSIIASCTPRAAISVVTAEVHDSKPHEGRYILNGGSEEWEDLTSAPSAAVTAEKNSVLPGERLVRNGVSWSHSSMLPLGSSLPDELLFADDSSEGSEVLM
The following applies: at 10 µM.
As for `Cc1ccc(O)cc1Nc1ccnc2ccc(S(C)(=O)=O)cc12`, the inhibition came to 6%.
The value for `O=C(Nc1n[nH]c2cc(-c3ccc(F)cc3)ccc12)C1CC1` was 86%.
The result for `O=C(Nc1n[nH]c2cc(-c3ccccc3)ccc12)C1CC1` reads -4%.
The value for `CNC(=O)c1cncc(/C=C/c2ccccc2Cl)c1` was 5%; that for `COc1ccc(-c2cc(-c3c[nH]nc3-c3ccccn3)ccn2)cc1` was -5%.
With `FC(F)(F)CNc1nccc(-c2cnn3ncccc23)n1`, the inhibition is 1%.
The value for `Fc1ccc(-c2ncn(CCCN3CCOCC3)c2-c2ccncc2)cc1` was 21%.
The result for `CN(c1ccc(NC(=O)Nc2ccc(OC(F)(F)F)cc2)cc1)c1ccnc(Nc2cccc(S(N)(=O)=O)c2)n1` reads -1%.
The value for `[O-][S+]1CCN(Cc2ccc(-c3ccc4ncnc(Nc5ccc(OCc6cccc(F)c6)c(Cl)c5)c4c3)o2)CC1` was 67%; that for `CN(c1ccc(NC(=O)Nc2c(Cl)cccc2Cl)cc1)c1ccnc(Nc2cccc(CS(C)(=O)=O)c2)n1` was -4%.
On to `Cc1cc(-c2ccco2)cc(C)c1/C=C/c1cncc(-c2nn[nH]n2)c1`, for which the inhibition is 86%.
The result for `COc1ccc(COc2ccc(Cc3cnc(N)nc3N)cc2OC)cc1` reads 5%; that for `c1ccc(Oc2ccc(Nc3ncc(-c4ccccc4)o3)cc2)cc1`, 27%.
The result for `Cc1cccc(Nc2ncc(-c3ccccc3)o2)c1` reads 38%.
The result for `CS(=O)(=O)CCNCc1ccoc1-c1ccc2ncnc(Nc3ccc(OCc4ccccc4)cc3)c2c1` reads 88%; that for `Cc1ccc(C(=O)NC2CCCCC2)cc1-c1ccc(C(=O)NCC2CC2)cc1`, -8%; that for `O=C(Nc1n[nH]c2nc(-c3ccco3)c(Br)cc12)C1CC1`, 83%.
Regarding `CNC(=O)c1cc(-c2ccc(F)cc2)cc(-c2ccc(S(=O)(=O)N3CCCC3)cc2)c1N`, the inhibition is -7%.
The value for `CCC(=O)Nc1ccc(C)c(-c2ccc(C(=O)NCC3CC3)cc2)c1` was -1%; that for `NS(=O)(=O)c1ccc(-c2ccc3c(NC(=O)C4CC4)n[nH]c3c2)cc1` was 11%; that for `Cn1cc(C=C2C(=O)Nc3cccnc32)c2ccccc21` was -6%.
The value for `Fc1ccc(Nc2nccc(-c3c(-c4ccc(C(F)(F)F)cc4)nn4ncccc34)n2)cc1F` was -5%; that for `COc1ccc2cc(-c3c(-c4ccncc4)nc(-c4ccc([S+](C)[O-])cc4)n3C)ccc2c1` (stereo unspecified) was 77%; that for `c1ccc(Cc2nc3ccc(Nc4ncnc5ccccc45)cc3[nH]2)cc1` was 4%.
The value for `COc1cc(Nc2ncc(-c3ccccc3)o2)cc(OC)c1` was -9%.
For `CCn1c(-c2nonc2N)nc2c(C#CC(C)(C)O)ncc(OC3CCNCC3)c21`, the inhibition was -5%.
As for `COc1cc2ncnc(Nc3ccc4c(cnn4Cc4ccccc4)c3)c2cc1OC`, the inhibition was determined as 5%.
The result for `CN1CCC(C(=O)Nc2n[nH]c3nc(-c4ccc(O)cc4)c(Br)cc23)CC1` reads 15% and 7%.
For `NCc1ccc(-c2nc(-c3ccc(Cl)c(O)c3)c(-c3ccncc3)[nH]2)cc1`, the inhibition came out at 0%.
The result for `Nc1nccc(C#Cc2cncnc2Nc2ccc(OCc3cccc(F)c3)c(Cl)c2)n1` reads 13%; that for `COc1cc2ncn(-c3cc(OCc4ccccc4C(F)(F)F)c(C(N)=O)s3)c2cc1OC`, 10%.
The result for `CCn1c(-c2nonc2N)nc2c(C#CC(C)(C)O)ncc(OC[C@@H]3CCCN3)c21` reads -4%; that for `CC(=O)Nc1cccc(C#Cc2cncnc2Nc2ccc(OCc3cccc(F)c3)c(Cl)c2)n1`, 1%; that for `CN(C)C(=O)O[C@@H]1CN[C@@H](C#Cc2cc3ncnc(Nc4ccc(OCc5cccc(F)c5)c(Cl)c4)c3s2)C1`, 8%.
For `COc1cc2ncn(-c3cc(OCc4ccccc4C(F)(F)F)c(C(C)=O)s3)c2cc1OC`, the inhibition was -1%.
The value for `COc1cc(N2CCN(C(C)C)CC2)ccc1Nc1nc(Nc2ccc(F)cc2C(=O)NC[C@@H](O)CO)c2cc[nH]c2n1` was 0%.
The result for `CCS(=O)(=O)c1ccc(OC)c(Nc2nccc(N(C)c3ccc4c(C)n[nH]c4c3)n2)c1` reads -2%; that for `COc1ccc2cc(-c3c(-c4ccncc4)nc(-c4ccc([S+](C)[O-])cc4C)n3C)ccc2c1` (stereo unspecified), -5%; that for `CCn1c(-c2nonc2N)nc2cncc(C(=O)N3CC[C@H](N)C3)c21`, 6%.
As to `COc1cc2ncn(-c3cc(OCc4ccccc4S(C)(=O)=O)c(C#N)s3)c2cc1OC`, the inhibition was 2%.
As to `CCn1c(-c2nonc2N)nc2ccccc21`, the inhibition worked out at 59%.
The result for `CN1CCN(Cc2ccc(-c3cc4ncnc(Nc5ccc(OCc6cccc(F)c6)c(Cl)c5)c4s3)o2)CC1` reads -4%; that for `CC(C)=Cc1cccc2c1/C(=N/Nc1ccc(S(N)(=O)=O)cc1)C(=O)N2`, 68%; that for `COc1cc2c(cc1Nc1nc(Nc3ccsc3C(N)=O)c3cc[nH]c3n1)N(C(=O)CN(C)C)CCC2`, 67%.
The result for `CCCN1CCC=C(c2ccc(Nc3nc(Nc4ccccc4C(N)=O)c4cc[nH]c4n3)c(C)c2)C1` reads 10%; that for `NS(=O)(=O)c1ccc(Nc2cc(-c3cccc(O)c3)n[nH]2)cc1`, 2%; that for `CCN1CCC(CC(=O)Nc2n[nH]c3nnc(-c4cccc(F)c4F)cc23)CC1`, 9%.
The value for `Fc1ccc(-c2ncn(C3CCNCC3)c2-c2ccnc(Oc3ccc(Oc4ccccc4)cc3)n2)cc1` was 0%; that for `CS(=O)(=O)CCN(CC#N)Cc1ccc(-c2ccc3ncnc(Nc4ccc(OCc5cccc(F)c5)c(Cl)c4)c3c2)o1` was 66%.
Take `O=C1Nc2ccccc2/C1=C/Nc1ccc2[nH]c(=O)[nH]c2c1`: the inhibition was -2%.
As to `Cc1ccc(-c2cc3c(NC(=O)C4CC4)ncnc3o2)cc1`, the inhibition amounted to 3%.
On to `NC(=O)c1ccc(Oc2nccc(-c3c(-c4ccc(F)cc4)ncn3C3CCNCC3)n2)cc1`, for which the inhibition came out at 3%.
The value for `COc1ccc(Nc2ncc(-c3ccccc3)o2)cc1OC` was 0%; that for `Cc1c2ccc(N(C)c3ccnc(Nc4cccc(S(N)(=O)=O)c4)n3)cc2nn1C` was -9%.
The result for `CCc1cccc(NC(=O)Nc2ccc(Oc3ccc4nc(NC(=O)OC)[nH]c4c3)cc2)c1` reads 8%; that for `CN1CCC(n2cnc(-c3ccc(F)cc3)c2-c2ccnc(N)n2)CC1`, -7%; that for `NC(=O)c1sc(-n2cnc3cc(C(F)(F)F)ccc32)cc1OCc1ccccc1Br`, 6%.
The value for `Nc1ncnc2occ(-c3ccc(NC(=O)Nc4cc(C(F)(F)F)cc(C(F)(F)F)c4)cc3)c12` was 2%.
For the compound `CN(C)CCCn1c(-c2nonc2N)nc2cnccc21`, the inhibition came out at 23%.
The result for `CC(C)c1ccc(-c2cc(-c3c[nH]nc3-c3ccccn3)ccn2)cc1` reads -10%.
The result for `CCn1c(-c2nonc2N)nc2c(C#CC(C)(C)O)ncc(OCC3CCNCC3)c21` reads 3%.
Take `COC(=O)Nc1nc2cc(Oc3ccc(NC(=O)Nc4ccccc4)cc3)ccc2[nH]1`: the inhibition was 100%.
The result for `COc1cccc(-c2c[nH]c3c(N/N=C/c4ccncc4)ncnc23)c1` reads 85%; that for `Cc1ccc(O)cc1Nc1ccnc2cc(-c3ccccn3)ccc12`, -2%; that for `Cc1nnc(-c2cccc(-c3ccc(C(=O)NCC4CC4)cc3)c2)o1`, -4%.
The result for `Cc1cc(Cl)cc2c1NC(=O)C2=NNc1ccc(S(N)(=O)=O)cc1` reads 63%; that for `c1cnn2ncc(-c3ccnc(Nc4ccc5c(c4)OCCO5)n3)c2c1`, -3%; that for `NS(=O)(=O)c1ccc(N/N=C2\C(=O)Nc3ccc4ncccc4c32)cc1`, -1%.
The result for `Oc1cccc(-c2nc(-c3ccccc3)[nH]c2-c2ccncc2)c1` reads 3%.
With `CC1=C(C(=O)Nc2ccc3[nH]ncc3c2)C(c2ccc3ccccc3c2)CC(=O)N1` (stereo unspecified), the inhibition stood at 47%.
The result for `Fc1ccc(-c2ncn(C3CCNCC3)c2-c2ccnc(Oc3ccc4c(c3)OCO4)n2)cc1` reads 6%; that for `CS(=O)(=O)Nc1ccc(N/C=C2\C(=O)Nc3ccccc32)cc1`, 2%.
In the case of `OCCCNc1nccc(-c2c(-c3ccc(F)cc3)nn3cc(C(F)(F)F)ccc23)n1`, the inhibition amounted to 57%.
Take `COc1ccc(-c2oc3ncnc(N)c3c2-c2ccc(NC(=O)Nc3cc(C(F)(F)F)ccc3F)cc2)cc1`: the inhibition is -2%.
The value for `Nc1nc(-c2ccc(F)cc2)c(-c2ccc3ncccc3n2)s1` was -2%.
The result for `CN(C)CCNC(=O)Nc1ccc(N(C)c2ccnc(Nc3ccc(CS(C)(=O)=O)cc3)n2)cc1` reads 1%.

The values above are taken from ChEMBL document CHEMBL2007661, “Compounds: GSK PKIS; Assays: UNC Frye lab” (2012).
